For series [1], the target named is T1, AmpC β-lactamase (Escherichia coli, UniProt P00811).
T1 construct: Recombinant E. coli AmpC (amino acids 20–377); purchased MyBioSource.com
Nature of the series: biochemical. More on the design: species or system E. coli. The conditions noted are these: for AmpC counter-screen result / AmpC aggregation counter-screen: 10 μM compound; for AmpC counter-screen result: detergent-sensitive modulation; for AmpC aggregation counter-screen: ± 0.01% Triton X-100; for inhibition at 10 µM: read-out: % Inhibition, AmpC. How it is done:
Selected compounds were assessed for aggregation using a modified AmpC β-lactamase counter-screen[24],[32],[64]. Recombinant E. coli AmpC (amino acids 20–377) was obtained from MyBioSource.com. Testing was performed in ALARM NMR buffer (25 mM sodium phosphate, pH 7.0) in flat-bottom UV-transparent 96-well microplates in 150 μL reaction volumes. Compounds were tested in triplicate at 10 μM final concentrations in either the presence or absence of freshly-prepared 0.01% Triton X-100 (v/v). Final concentration of DMSO was 2.0% (v/v). Compounds were incubated with ~5 nM AmpC in 147 μL reaction buffer for 5 min at RT, followed by the addition of 3 μL of nitrocefin substrate (100 μM final concentration). Reaction solutions were gently mixed by pipetting up and down three times using a multichannel pipette. […] Percent activity was normalized to DMSO-only controls. Fluconazole and lidocaine were included as negative aggregation control compounds. Rottlerin was included as a positive aggregation control compound. Aggregators were defined as compounds with significant detergent-dependent changes in AmpC activity (t-test, adjusted P-value <0.05; mean differences greater than 30%). Activators were defined as compounds that increased AmpC enzymatic activity.
(A counterscreen serves to expose hits that act by an unwanted route or on another target.)

Series [2] in a line: UPLC-MS gross compound stability in assay buffer. The conditions noted are these: 25 mM sodium phosphate, pH 7.0, 30 °C, no GSH or CoA. On the procedure: Select compounds were incubated up to 24 h for additional stability analyses. Chromatograms and mass spectra were qualitatively analyzed for the formation of new peaks and/or loss of parent peaks.
The nature of series [3]: Absorbance spectra. Conditions: for Absorption max (nm) / Absorbance counter-screen: 25 mM sodium phosphate, pH 7.0; for Absorbance counter-screen: 300-750 nm; for Molar absorptivity: at absorption max. The series is classed as physicochemical. How it is done: Selected test compounds were assessed for absorption between 300 and 750 nm. Most compound absorption spectra were obtained at 100, 50, and 10 μM final compound concentrations in ALARM NMR buffer (25 mM sodium phosphate, pH 7.0). Final concentration of DMSO was constant at 2.0% (v/v). Compounds were allowed to incubate at RT in buffer for 10 min in UV-transparent polystyrene 384-well plates. Absorbance spectra were then obtained on a SpectraMax M3 or BMG Labtech CLARIOstar microplate reader at 25 °C. Significant absorbance was defined as molar absorptivity constants greater than 2000 M^−1 cm^−1 at wavelengths greater than 300 nm.

The nature of series [4]: Autofluorescence counter-screen. Type of series: physicochemical. Conditions: for Fluorescence counter-screen: autofluorescence at eight fluorophore settings, 32 nM-100 μM compound. On the procedure: Selected test compounds were assessed for autofluorescence using an adaption of published procedures. […] Final concentration of DMSO was constant at 1.0% (v/v). Compounds and fluorophore standards were transferred as 10 mM DMSO stock solutions to 384-well black polystyrene microplates via Echo 550 dispenser. The plate arrangement was purposefully designed to minimize optical crosstalk by fluorophore standards. All measurements were performed in ALARM NMR buffer (25 mM sodium phosphate, pH 7.0) at 25 °C. Aliquots of 20 μL buffer were dispensed into microplate wells via ThermoFisher Multidrop dispenser. Compounds were shaken for 1 min on a plate shaker, centrifuged briefly for 1 min at 1000×g, then allowed to incubate at RT in buffer for 10 min before measuring fluorescence intensity on a SpectraMax M3 plate reader under reduced lighting. […] Bandwidth filters were set to default mode. Fluorescence intensity was measured for each test compound using each of the eight fluorophore standard settings. Fluorophores present on each plate were then used to construct normalized fluorescence dose-responses (“fluorophore-equivalent concentrations”, FEC). Fluorescence intensity for each test compound was converted to the appropriate FEC.

T1 sequence (P00811 20-377): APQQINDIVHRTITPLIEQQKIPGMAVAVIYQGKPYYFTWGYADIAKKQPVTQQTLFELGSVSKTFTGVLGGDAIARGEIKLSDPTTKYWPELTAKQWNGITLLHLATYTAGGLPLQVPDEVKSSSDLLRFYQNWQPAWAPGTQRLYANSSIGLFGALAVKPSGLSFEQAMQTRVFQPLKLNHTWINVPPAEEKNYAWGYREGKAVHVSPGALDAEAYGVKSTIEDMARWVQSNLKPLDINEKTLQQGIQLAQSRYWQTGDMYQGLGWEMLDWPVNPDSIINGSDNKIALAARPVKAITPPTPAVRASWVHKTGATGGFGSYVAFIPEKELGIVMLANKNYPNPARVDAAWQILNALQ

One may read the inhibition as the change of the read-out against control, counted positive when it falls. For the compound `CC1=NN(c2ccc(C(=O)O)cc2)C(=O)/C1=C/c1ccc(-c2cc(C)c(C)cc2[N+](=O)[O-])o1` [Compound 1, C646], in series [1], the “AmpC counter-screen result” value is listed as “likely aggregators”, the AmpC aggregation counter-screen entry is reported as “Detergent-sensitive (activator)” and the inhibition at 10 µM is -58 ± 56%. Also, in series [2], the “UPLC-MS buffer stability counter-screen” value is recorded as “Gross degradation observed; loss of parent peak, appearance of new peaks”. In series [3], the “Absorption max (nm)” value was determined as 405 nm, the Absorbance counter-screen entry was “Flagged (Significant absorbance was defined as molar absorptivity constants greater than 2000 M^−1 cm^−1 at wavelengths greater than 300 nm)” and the “Molar absorptivity” value was found to be 18000 M⁻¹ cm⁻¹. Besides, the Fluorescence counter-screen result in series [4] is on record as “Negative”.
`O=c1c2cccnc2sn1Cc1ccc(C(F)(F)F)cc1` [Compound 3, PU141]: the AmpC aggregation counter-screen result in series [1] is “Detergent-insensitive”. For the same compound, the “UPLC-MS buffer stability counter-screen” value in series [2] was “Grossly stable”. For the same compound, in series [3], the “Absorption max (nm)” value is 315 nm, the Absorbance counter-screen entry was “Flagged (Significant absorbance was defined as molar absorptivity constants greater than 2000 M^−1 cm^−1 at wavelengths greater than 300 nm)” and the “Molar absorptivity” value came to 2700 M⁻¹ cm⁻¹. Besides, in series [4], the Fluorescence counter-screen entry is “Flagged (Significant autofluorescence was defined as compounds with FECs greater than 100 nM at any compound concentration)”. The Fluorophore interference in series [4] (fluorophore settings with autofluorescence) was 4MU, AlexaFluor 350.
With `Cc1cc(O)cc(C)c1C=C1C(=O)N(Cc2ccccc2)C(=O)N(Cc2ccccc2)C1=O` [Compound 4, EML425], in series [1], the “AmpC counter-screen result” value was “likely aggregators” and the AmpC aggregation counter-screen result is reported as “Detergent-sensitive (Aggregators were defined as compounds with significant detergent-dependent changes in AmpC activity (t-test, adjusted P-value <0.05; mean differences greater than 30%))”. Also, the “UPLC-MS buffer stability counter-screen” value in series [2] is listed as “Grossly stable”. Moreover, in series [3], the “Absorption max (nm)” value was determined as 425 nm, the Absorbance counter-screen result is on record as “Flagged (Significant absorbance was defined as molar absorptivity constants greater than 2000 M^−1 cm^−1 at wavelengths greater than 300 nm)” and the “Molar absorptivity” value came to 2700 M⁻¹ cm⁻¹. Further, the Fluorescence counter-screen result in series [4] is reported as “Negative”.
Consider `COc1ccc(S(=O)(=O)ON=C2C=C(C)C(=O)C(C)=C2)cc1` [Compound 5, L002], for which, in series [1], the AmpC aggregation counter-screen entry is reported as “Detergent-insensitive”. The “UPLC-MS buffer stability counter-screen” value in series [2] was “Gross degradation observed; loss of parent peak”. In addition, in series [3], the “Absorption max (nm)” value is recorded as 290 nm and the Absorbance counter-screen entry is reported as “Negative”. Further, in series [4], the Fluorescence counter-screen entry is “Negative”.
For the compound `C=C1C(=O)O[C@H](CCC)[C@H]1C(=O)O` [Compound 6, MB-3], in series [1], the AmpC aggregation counter-screen entry was “Detergent-insensitive”. In addition, in series [2], the “UPLC-MS buffer stability counter-screen” value is reported as “Grossly stable”. Moreover, in series [3], the “Absorption max (nm)” value was “Nominal” and the Absorbance counter-screen entry is listed as “Negative”. Further, the Fluorescence counter-screen entry in series [4] is reported as “Negative”.
On to `Clc1ccc(-c2csc(NN=C3CCCC3)n2)cc1` [Compound 7, CPTH2], for which, in series [1], the “AmpC counter-screen result” value is listed as “likely aggregators” and the AmpC aggregation counter-screen result is given as “Detergent-sensitive (Aggregators were defined as compounds with significant detergent-dependent changes in AmpC activity (t-test, adjusted P-value <0.05; mean differences greater than 30%))”. For the same compound, in series [2], the “UPLC-MS buffer stability counter-screen” value is reported as “Gross degradation observed; loss of parent peak, appearance of new peaks”. In series [3], the “Absorption max (nm)” value came to 285 nm and the Absorbance counter-screen result is on record as “Negative”. Also, in series [4], the Fluorescence counter-screen result is reported as “Negative”.
`CCCCCCCCCCCC1=C(O)C(=O)C=C(O)C1=O` [Compound 9, Embelin]: in series [1], the AmpC aggregation counter-screen result is reported as “Detergent-sensitive (Aggregators were defined as compounds with significant detergent-dependent changes in AmpC activity (t-test, adjusted P-value <0.05; mean differences greater than 30%))”. Moreover, in series [2], the “UPLC-MS buffer stability counter-screen” value is “Grossly stable”. For the same compound, in series [3], the “Absorption max (nm)” value stood at 315 nm, the Absorbance counter-screen entry is given as “Flagged (Significant absorbance was defined as molar absorptivity constants greater than 2000 M^−1 cm^−1 at wavelengths greater than 300 nm)” and the “Molar absorptivity” value was found to be 21000 M⁻¹ cm⁻¹. In addition, the Fluorescence counter-screen entry in series [4] is “Negative”.
`O=C(O[C@@H]1Cc2c(O)cc(O)cc2O[C@@H]1c1cc(O)c(O)c(O)c1)c1cc(O)c(O)c(O)c1` [Compound 10, (-)-Epigallocatechin gallate]: the AmpC aggregation counter-screen result in series [1] is “Detergent-insensitive”. Further, in series [2], the “UPLC-MS buffer stability counter-screen” value is reported as “Gross degradation observed; loss of parent peak, appearance of new peaks”. Also, in series [3], the “Absorption max (nm)” value was 290 nm and the Absorbance counter-screen result is “Negative”. For the same compound, the Fluorescence counter-screen entry in series [4] was “Negative”.
Take `CCCCCCCCCCCCCCCc1cccc(O)c1C(=O)O` [Compound 14, Anacardic acid]: in series [1], the AmpC aggregation counter-screen result is reported as “Detergent-sensitive (Aggregators were defined as compounds with significant detergent-dependent changes in AmpC activity (t-test, adjusted P-value <0.05; mean differences greater than 30%))”. Moreover, in series [3], the “Absorption max (nm)” value is given as 305 nm and the Absorbance counter-screen result was “Negative”. In addition, the Fluorescence counter-screen entry in series [4] is listed as “Negative”.
`CCCCCCCc1ccc(CCc2cccc(O)c2C(=O)O)cc1` [Compound 15, MG 149]: in series [1], the “AmpC counter-screen result” value is given as “negative” and the AmpC aggregation counter-screen entry was “Detergent-insensitive”. For the same compound, in series [3], the “Absorption max (nm)” value is listed as 300 nm and the Absorbance counter-screen result was “Negative”. Moreover, in series [4], the Fluorescence counter-screen entry is reported as “Negative”.
In the case of `Cc1cc2c(C(C)C)c(O)c(O)c(C=O)c2c(O)c1-c1c(C)cc2c(C(C)C)c(O)c(O)c(C=O)c2c1O` [Compound 16, Gossypol], in series [1], the AmpC aggregation counter-screen entry is given as “Detergent-sensitive (Aggregators were defined as compounds with significant detergent-dependent changes in AmpC activity (t-test, adjusted P-value <0.05; mean differences greater than 30%))”. For the same compound, in series [3], the “Absorption max (nm)” value is 385 nm, the Absorbance counter-screen result is listed as “Flagged (Significant absorbance was defined as molar absorptivity constants greater than 2000 M^−1 cm^−1 at wavelengths greater than 300 nm)” and the “Molar absorptivity” value is 22000 M⁻¹ cm⁻¹. Besides, the Fluorescence counter-screen result in series [4] is “Negative”.
As to `COc1cc(/C=C/c2cc(/C=C/c3ccc(O)c(OC)c3)n(-c3ccc(C(=O)[O-])cc3)n2)ccc1O.[Na+]` [Compound 17, CTK7A], in series [1], the AmpC aggregation counter-screen result is “Detergent-sensitive (activator)” and the inhibition at 10 µM is -52 ± 35%. Besides, in series [3], the “Absorption max (nm)” value is recorded as 325 nm, the Absorbance counter-screen result is reported as “Flagged (Significant absorbance was defined as molar absorptivity constants greater than 2000 M^−1 cm^−1 at wavelengths greater than 300 nm)” and the “Molar absorptivity” value stood at 30000 M⁻¹ cm⁻¹. For the same compound, in series [4], the Fluorescence counter-screen result is given as “Negative”.
Regarding `Cl.Cl.O=C(O)Cn1nnc(-c2ccc(CN(CCCCOc3ccc(CN4CCCC4)cc3)CCc3ccccc3)cc2)n1` [Compound 20, TH1834], in series [1], the “AmpC counter-screen result” value is recorded as “likely aggregators”, the AmpC aggregation counter-screen result is listed as “Detergent-sensitive (activator)” and the inhibition at 10 µM was -63 ± 26%. Besides, in series [3], the “Absorption max (nm)” value is on record as “Nominal” and the Absorbance counter-screen entry is on record as “Negative”. In addition, the Fluorescence counter-screen entry in series [4] is recorded as “Negative”.
Turning to Garcinol [Compound 13], in series [1], the AmpC aggregation counter-screen result was “Detergent-sensitive (Aggregators were defined as compounds with significant detergent-dependent changes in AmpC activity (t-test, adjusted P-value <0.05; mean differences greater than 30%))”. Also, in series [3], the “Absorption max (nm)” value worked out at 290 nm and the Absorbance counter-screen result is given as “Negative”. Besides, in series [4], the Fluorescence counter-screen entry is “Negative”.

These data come from paper PMC5688144, “Assay interference and off-target liabilities of reported histone acetyltransferase inhibitors” (Nature Communications, 2017).
